Laboratory results as given in US11542302B2, “Modulators of melanocortin receptors for the treatment of depression and anxiety” (ARIZONA BOARD OF REGENTS ON BEHALF OF THE UNIVERSITY OF …, priority 2015, dated 2023).

Biological target: hMC5R (Homo sapiens, UniProt P33032)
Test: hMC5R intracellular cAMP accumulation
Format: cell-based
Conditions: relative to MT-II

hMC5R, sequence (P33032 whole entry): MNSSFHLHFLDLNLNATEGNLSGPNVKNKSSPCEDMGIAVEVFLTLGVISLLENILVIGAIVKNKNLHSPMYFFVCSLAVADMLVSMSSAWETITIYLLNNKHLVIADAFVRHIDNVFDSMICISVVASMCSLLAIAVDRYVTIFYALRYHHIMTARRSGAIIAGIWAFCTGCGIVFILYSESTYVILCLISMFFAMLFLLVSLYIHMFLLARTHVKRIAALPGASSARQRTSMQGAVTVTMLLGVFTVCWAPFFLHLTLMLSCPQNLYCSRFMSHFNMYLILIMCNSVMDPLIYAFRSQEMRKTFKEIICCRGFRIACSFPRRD

% Act at 10 μM (% of cAMP produced at 10 μM ligand concentration, in relation to MT-II): 0%
SMILES: N=C(N)NCCC[C@@H]1NC(=O)[C@@H](Cc2ccccc2)NC(=O)[C@H](CC2CCCCC2)NC(=O)c2cc([N+](=O)[O-])ccc2SC[C@@H](C(N)=O)NC(=O)[C@H](Cc2c[nH]c3ccccc23)NC1=O [compound 2]
